Measured values from ChEMBL document CHEMBL5331042, “Azole inhibitors of mushroom and human tyrosinases: Current advances and prospects of drug development for melanogenic dermatological disorders” (Eur J Med Chem, 2022).
Peptide text beside a SMILES is read from it.

Columns and labels:
Tyrosinase [1] = target: T1, Tyrosinase (Homo sapiens, UniProt P14679); test: Inhibition of human tyrosinase using L-DOPA as substrate incubated for 10 to 20 mins by MBTH dye based assay
T1 sequence (P14679 whole entry): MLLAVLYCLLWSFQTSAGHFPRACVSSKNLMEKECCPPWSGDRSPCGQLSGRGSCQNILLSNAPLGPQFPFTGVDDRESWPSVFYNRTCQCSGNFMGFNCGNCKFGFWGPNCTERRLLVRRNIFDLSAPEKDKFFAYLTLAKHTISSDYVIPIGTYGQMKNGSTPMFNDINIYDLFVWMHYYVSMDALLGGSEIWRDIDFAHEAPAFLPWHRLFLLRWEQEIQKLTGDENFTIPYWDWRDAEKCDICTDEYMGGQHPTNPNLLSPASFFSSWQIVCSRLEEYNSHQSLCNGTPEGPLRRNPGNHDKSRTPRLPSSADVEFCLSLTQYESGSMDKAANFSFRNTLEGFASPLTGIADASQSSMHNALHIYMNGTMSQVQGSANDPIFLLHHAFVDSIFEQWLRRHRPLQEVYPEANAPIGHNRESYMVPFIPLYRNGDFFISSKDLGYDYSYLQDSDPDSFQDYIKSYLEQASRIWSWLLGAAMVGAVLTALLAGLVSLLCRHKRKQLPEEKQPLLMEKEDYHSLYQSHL

Mushroom tyrosinase [2] = target: T2, Mushroom tyrosinase (Agaricus bisporus, UniProt O42713+Q00024+C7FF04+C7FF05); test: Inhibition of mushroom tyrosinase using L-DOPA as substrate preincubated for 10 mins followed by substrate addition and measured after 20 mins
Mushroom tyrosinase [3] = target: T2, Mushroom tyrosinase; test: Inhibition of mushroom tyrosinase using L-DOPA as substrate preincubated for 20 mins followed by substrate addition by absorbance based analysis
Mushroom tyrosinase [4] = target: T2, Mushroom tyrosinase; test: Inhibition of mushroom tyrosinase using L-tyrosine as substrate preincubated for 20 mins followed by substrate addition by absorbance based analysis
Mushroom tyrosinase [5] = target: T2, Mushroom tyrosinase; test: Inhibition of mushroom tyrosinase using L-DOPA as substrate preincubated for 10 mins followed by substrate addition by absorbance based analysis
Mushroom tyrosinase [6] = target: T2, Mushroom tyrosinase; test: Binding affinity to mushroom tyrosinase assessed as inhibition constant using L-DOPA as substrate preincubated for 10 mins followed by substrate addition by absorbance based analysis
Tyrosinase [7] = target: T1, Tyrosinase; test: Inhibition of human His-tagged tyrosinase CD expressed in HEK293 cells assessed as inhibition of melanin production using L-DOPA as substrate; format: cell-based
[8] = Cytotoxicity against mouse B16-F10 cells assessed as inhibition of cell growth at 8 uM measured after 24 hrs by MTT assay relative to control; format: toxicity, cell-based
Mushroom tyrosinase [9] = target: T2, Mushroom tyrosinase; test: Inhibition of mushroom tyrosinase using L-DOPA as substrate preincubated for 10 mins followed by substrate addition and measured after 20 mins by absorbance based analysis
Mushroom tyrosinase [10] = target: T2, Mushroom tyrosinase; test: Binding affinity to mushroom tyrosinase assessed as inhibition constant using L-DOPA as substrate preincubated for 10 mins followed by substrate addition and measured after 20 mins
[11] = Cytotoxicity against mouse B16-F10 cells assessed as inhibition of cell growth measured after 48 hrs by MTT assay; format: toxicity, cell-based
Mushroom tyrosinase [12] = target: T2, Mushroom tyrosinase; test: Inhibition of mushroom tyrosinase

Structure (SMILES): Cc1sc(NC(=O)C2CCCCC2)nc1-c1ccc(O)cc1O
- IC50 (Tyrosinase [1]): > 1000 µM

Structure (SMILES): CCCCn1c(SCC(=O)Nc2ccc(Br)cc2)nnc1-c1ccccc1
- IC50 (Mushroom tyrosinase [2]): 0.34 µM

Structure (SMILES): NC(=S)N/N=C/c1ccc(OCc2cn(CC(=O)Nc3ccc(F)cc3)nn2)cc1
- IC50 (Mushroom tyrosinase [3]): 0.6 µM
- IC50 (Mushroom tyrosinase [4]): 0.14 µM

Structure (SMILES): CCCCn1c(SCC(=O)Nc2ccccc2)nnc1-c1ccccc1
- IC50 (Mushroom tyrosinase [2]): 0.21 µM

Structure (SMILES): COc1cc(C2CC(c3cc4ccccc4oc3=O)=NN2c2nc(-c3ccc(Br)cc3)cs2)ccc1OCc1ccccc1 (stereo not given)
- IC50 (Mushroom tyrosinase [5]): 0.00458 µM
- Ki (Mushroom tyrosinase [6]): 0.0086 µM

Structure (SMILES): OCc1ccc(Nc2nc(-c3ccc(O)cc3O)cs2)cc1
- IC50 (Tyrosinase [1]): 5.7 µM

Structure (SMILES): NC(=S)N/N=C/c1ccc(OCc2cn(CC(=O)Nc3ccc([N+](=O)[O-])cc3)nn2)cc1
- IC50 (Mushroom tyrosinase [3]): 0.68 µM

Structure (SMILES): CC(C)C(=O)Nc1nc(-c2ccc(O)cc2O)cs1
- IC50 (Tyrosinase [1]): 1.4 µM
- IC50 (Tyrosinase [7]): 0.9 µM

Structure (SMILES): O=c1cc(CO)occ1O [KOJIC ACID]
- inhibition at 24 h, 8 µM [8]: 94%

Structure (SMILES): Oc1ccc(-c2csc(NC3CCCCC3)n2)c(O)c1
- IC50 (Tyrosinase [1]): 16 µM

Structure (SMILES): NC(=S)N/N=C/c1ccc(OCc2cn(CC(=O)NCc3ccc(F)cc3)nn2)cc1
- IC50 (Mushroom tyrosinase [3]): 0.43 µM
- IC50 (Mushroom tyrosinase [4]): 0.83 µM

Structure (SMILES): CC(=O)/C=C/Nc1nc(-c2ccc(O)cc2O)cs1
- IC50 (Tyrosinase [1]): 3.5 µM

Structure (SMILES): CN(c1nc(-c2ccc(O)cc2O)cs1)C1CCCCC1
- IC50 (Tyrosinase [1]): 40 µM

Structure (SMILES): O=C1OC(c2ccccc2Br)=NC(=S)C1c1nn[nH]n1 (stereo not given)
- IC50 (Mushroom tyrosinase [9]): 0.037 µM
- Ki (Mushroom tyrosinase [10]): 0.0003 µM

Structure (SMILES): O=C(NC1CCCCC1)c1nc(-c2ccc(O)cc2O)cs1
- IC50 (Tyrosinase [1]): 56 µM

Structure (SMILES): O=C1C=C(Cn2cc(COc3cccc4ccccc34)nn2)C(=O)C=C1O
- IC50 at 48 h [11]: 65 µM
- IC50 (Mushroom tyrosinase [9]): 0.06 µM

Structure (SMILES): CC(C)(C)C(=O)Nc1nc(-c2ccc(O)cc2O)cs1
- IC50 (Tyrosinase [1]): 5.7 µM

Structure (SMILES): NC(=S)N/N=C/c1ccc(OCc2cn(CC(=O)Nc3cccc(Br)c3)nn2)cc1
- IC50 (Mushroom tyrosinase [3]): 0.21 µM
- inhibition at 24 h, 8 µM [8]: ≤ 70%

Structure (SMILES): COc1ccccc1-n1c(SCC(=O)Nc2ccccc2)nnc1-c1ccccc1
- IC50 (Mushroom tyrosinase [2]): 0.02 µM

Structure (SMILES): NC(=S)N/N=C/c1ccc(OCc2cn(CC(=O)Nc3cccc(Cl)c3Cl)nn2)cc1
- IC50 (Mushroom tyrosinase [3]): 0.42 µM

Structure (SMILES): CC(=O)Nc1nc(-c2ccc(O)cc2O)cs1
- IC50 (Tyrosinase [1]): 5.6 µM

Structure (SMILES): Oc1ccc(-c2csc(Nc3ncccn3)n2)cc1
- IC50 (Tyrosinase [1]): 19 µM

Structure (SMILES): CCCCn1c(SCC(=O)Nc2ccc(I)cc2)nnc1-c1ccccc1
- IC50 (Mushroom tyrosinase [2]): 0.21 µM

Structure (SMILES): CCCCCCc1ccc(O)c(C)c1O
- IC50 (Tyrosinase [1]): 93 µM

Structure (SMILES): NC(=S)N/N=C/c1ccc(OCc2cn(CC(=O)NCc3ccccc3)nn2)cc1
- IC50 (Mushroom tyrosinase [3]): 0.17 µM
- inhibition at 24 h, 8 µM [8]: 39.8%
- IC50 (Mushroom tyrosinase [4]): 0.25 µM

Structure (SMILES): COc1ccccc1-n1c(SCC(=O)Nc2ccc(I)cc2)nnc1-c1ccccc1F
- IC50 (Mushroom tyrosinase [2]): 0.06 µM

Structure (SMILES): CC(C)[C@@H]1NC(=O)[C@@H]2CCCN2C(=O)[C@H](Cc2ccc(O)cc2)NC(=O)[C@@H]2CCCN2C1=O (cyclo(PVPY))
- IC50 (Mushroom tyrosinase [12]): 0.6 µM

Structure (SMILES): NC(=S)N/N=C/c1ccc(OCc2cn(CC(=O)Nc3ccc(Cl)cc3)nn2)cc1
- IC50 (Mushroom tyrosinase [3]): 0.14 µM
- inhibition at 24 h, 8 µM [8]: 69.6%

Structure (SMILES): COc1cc(/C=N/c2nnc(S)s2)ccc1O
- IC50 (Mushroom tyrosinase [5]): 0.036 µM
- Ki (Mushroom tyrosinase [6]): 0.038 µM

Structure (SMILES): CC(=O)Nc1nc(-c2ccc(O)cc2O)c[nH]1
- IC50 (Tyrosinase [1]): > 700 µM

Structure (SMILES): COc1ccc(NC(=O)Cn2cc(COc3ccc(/C=N/NC(N)=S)cc3)nn2)cc1
- IC50 (Mushroom tyrosinase [3]): 0.52 µM
- IC50 (Mushroom tyrosinase [4]): 0.12 µM

Structure (SMILES): COc1ccccc1-n1c(SCC(=O)Nc2ccc(F)cc2)nnc1-c1ccccc1
- IC50 (Mushroom tyrosinase [2]): 0.08 µM

Structure (SMILES): CC(C)[C@H]1C(=O)N2CCC[C@H]2C(=O)N[C@@H](Cc2ccc(O)cc2)C(=O)N2CCC[C@H]2c2cn1nn2
- IC50 (Mushroom tyrosinase [12]): 1.5 µM
